Source: patent US20040186170A1, “Benzofuran derivatives, pharmaceutical composition containing the same, and a process for the preparation of the active ingredient” (EGIS GYOGYSZERGYAR, priority 1998, published 2004)
Where a name gives a salt, the structure may show the parent alone. Read-outs that look alike come from different tables or passages of the source.

Legend:
[1] = system: isolated perfused rat heart; test: TTC prolonging effect in isolated Langendorff rat hearts (global ischemia)
Procedure: Measurement of the cardioprotective effect in ischemic rat heart (Langendorff) preparation
The time lapsed after starting global ischemia until the beginning of contracture (i.e. time to contracture=TTC) is prolonged by several cardioprotective compounds, thus, the effectiveness of the compounds can be examined by measuring TTC.
Male Sprague-Dawley rats weighing 300 to 350 g were injected with 2500 IU (0.5 ml) of heparin i.p. and 10 minutes later the animals were anaesthetized with sodium pentobarbital/5-ethyl-5-(1-methylbutyl)-2,4,6(1H,3H,5H)-pyrimidinetrione sodium salt/ in a dose of 60 mg/kg i.p. The heart was quickly excised, and the aorta was connected to a cannula fixed to a Langendorff apparatus. The heart was perfused at a constant pressure (8000 Pa) with a modified carbogenized Krebs-Henseleit solution. The composition of the solution was the following (in mM): NaCl 118, KCl 4.7, MgSO4 1.6, CaCl2 2.5, NaHCO3 24.88, KH2PO4 1.18, EDTA 0.5, glucose 11. Partial CO2 pressure and pH of the solution were maintained within the physiological limits (pCO2 4000-4650 Pa, pH=7.3-7.45).
A hole was cut in the wall of the left atrium and a water-filled plastic balloon attached to a metal cannula was inserted into the left ventricle. End diastolic pressure of the left ventricle was set to a value between 666-1333 Pa during the equilibration period by changing the volume of the liquid in the balloon, however, later it was not modified.
After a 20 minutes' equilibration period, the hearts were perfused for 10 minutes with the vehicle (0.04% of dimethyl sulfoxide), in case of the control group, or with a solution of the test substance at 10^−6 or 10^−5 M concentration, in case of the treated groups. The activity of the test compound was not examined further when, at the end of the 10 minutes' period, the systolic pressure of the left ventricle was reduced by more than 20%, compared to the control value determined before the treatment.
Global ischemia was initiated by completely shutting off the perfusate flow and carbogenization for 25 minutes. The time period from the beginning of ischemia until the formation of myocardial contracture i.e. an increase of 666 Pa in left ventricular end diastolic pressure (TTC) was measured.
3 parallel experiments were performed with the test compounds at each concentration and parameters of 3 additional vehicle (0.04% dimethyl sulfoxide) treated hearts were measured along with the test substance.
Individual TTC values were averaged, and the effect of the test substances was expressed as a percentage change compared to the vehicle treated group. […] As a reference substance, lemakalim i.e. (3S)-trans-3,4-dihydro-3-hydroxy-2,2-dimethyl-4-(2-oxo-1-pyrrolidinyl)-2H-1-benzpyrane-6-carbonitrile was used.

[2] = molecular target: T1, 5-HT1A receptor (Rattus norvegicus, UniProt P19327); test: 5-HT1A receptor binding assay
T1 sequence (P19327 1-422): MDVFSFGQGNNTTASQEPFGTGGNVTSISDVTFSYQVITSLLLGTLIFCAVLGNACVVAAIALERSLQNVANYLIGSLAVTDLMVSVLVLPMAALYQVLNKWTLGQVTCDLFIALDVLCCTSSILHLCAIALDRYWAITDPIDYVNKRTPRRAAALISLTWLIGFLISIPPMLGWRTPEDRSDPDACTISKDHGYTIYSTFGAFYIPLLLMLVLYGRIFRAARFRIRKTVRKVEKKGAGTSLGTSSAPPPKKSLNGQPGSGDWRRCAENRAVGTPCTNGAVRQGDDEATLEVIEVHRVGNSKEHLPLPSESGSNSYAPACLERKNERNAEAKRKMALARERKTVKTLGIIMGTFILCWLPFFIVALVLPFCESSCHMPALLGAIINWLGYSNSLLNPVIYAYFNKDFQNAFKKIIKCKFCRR

[3] = system: Male Sprague-Dawley rats; test: Elevated plus-maze test on rats; format: in vivo, rat; conditions: for MED (in mg/kg) p.o.: 60 minutes prior to the test, based on the time spent in the open arms
Procedure: Elevated Plus-Maze Test on Rats
The test was carried out according to a modified method of Pelow et al./J. Neurosci. Methods, 14, 149 (1985)/. The elevated plus-maze consists of two open and two 40 cm wall enclosed arms of the same size (50×15 cm) arranged in the shape of a cross. The arms of the same type are opposite to each other. The junction of the four arms forms a central square area (15×15 cm). The apparatus is made of a wooden material elevated to a height of 50 cm and illuminated by a dim light from above. Male Sprague-Dawley rats weighing 220 to 260 g were used for the experiment.
The rats were treated with the test or reference compounds 60 minutes prior to the test. The animals were then placed onto a central square area and were subjected to the test for 5 minutes. The following 4 different parameters were determined:
time spent in the open arms;
time spent in the closed arms;
number of entries into the open arms;
number of entries into the closed arms.
A compound was considered to be effective where significant increase was found either in the time spent in the open arms (in sec) or in the number of entries into the open arms when compared to the control animals (in percentage). Minimum effective doses (MED) were determined based on the time spent in the open arms for each compound examined. Buspirone was used as the reference material.

[4] = system: Male Wistar rats; test: Anxiolytic effect, Vogel's conflict test; conditions: half an hour before the examination, tolerated number of electric shocks
Procedure: Determination of the Anxiolytic Effect on the Basis of Vogel's Conflict Test
The anxiolytic effect was examined by the method of Vogel et al./Vogel, J. R., Beer, B., Clody, D. E., Psychopharmacologia (Berl.), 21, 1 (1971)/. Male Wistar rats weighing 180 to 200 g were left to be thirsty for 48 hours and starved for 24 hours before the test. The substances to be examined and the carriers, respectively, were administered to the animals half an hour before the examination. In the test chamber, the rats were allowed to drink from the drinking tube protruding into the chamber. Following every 20th lick, the apparatus emitted an electric shock of 0.7 mA through the drinking tube. During the test lasting for 5 minutes, the number of those electric shocks was registered which the animals accepted in order to quench their thirst. The effect of the compounds was expressed as the increase of the tolerated number of electric shocks in percentage.
Meprobamate/2-methyl-2-propyltri-methylenecarbamate/ was used as the reference substance.

[5] = 10^−5 M, time to contracture, change compared to the vehicle treated group
[6] = 10^−6 M, time to contracture, change compared to the vehicle treated group

SMILES | TTC change (in %) at 10^−5 M [1, 5] | TTC change (in %) at 10^−6 M [1, 6] | Ki [2] | TTC change (in %) at 10^−6 M [1] | further results
CC1(C)Cc2cccc(OCC(O)CN3CC=C(c4cccc(C(F)(F)F)c4)CC3)c2O1.Cl (stereo not drawn) [Example 8, 1-/3-(2,2-Dimethyl-2,3-dihydrobenzofuran-7-yloxy)-2-hydroxypropyl/-4-(3-trifluoromethyl-phenyl)-1,2,3,6-tetrahydropyridine hydrochloride] | 90% | 43% |  |  | 
CC1(C)Cc2cccc(OCC(O)CN3CCC(O)(c4cccc(C(F)(F)F)c4)CC3)c2O1 (stereo not drawn) [Example 9, 1-/3-(2,2-Dimethyl-2,3-dihydrobenzofuran-7-yloxy)-2-hydroxypropyl/-4-hydroxy-4-(3-tri-fluoromethylphenyl)piperidine hydrochloride] |  |  | 20 nM | 90% | TTC prolongation compared with lemakalim [1]: surpasses remarkably also the effect of lemakalim
CC1(C)Cc2cccc(OCC(O)CN3CCC(O)(c4ccc(Cl)cc4)CC3)c2O1 (stereo not drawn) [Example 14, 1-/3-(2,2-Dimethyl-2,3-dihydrobenzofuran-7-yloxy)-2-hydroxypropyl/-4-hydroxy-4-(4-chloro-phenyl)piperidine] |  |  | 10 nM |  | 
CC1(C)Cc2cccc(OCC(O)CN3CCC(O)(c4ccc(F)cc4)CC3)c2O1 (stereo not drawn) [Example 16, 1-/3-(2,2-Dimethyl-2,3-dihydrobenzofuran-7-yloxy)-2-hydroxypropyl/-4-hydroxy-4-(4-fluoro-phenyl)piperidine] |  |  | 3 nM | 5% | MED (in mg/kg) p.o. [3]: 1 mg/kg; TTC change (in %) at 10^−5 M [1]: 78%
CC1(C)Cc2cccc(OCC(O)CN3CCC(O)(c4ccccc4)CC3)c2O1 (stereo not drawn) [Example 20, 1-/3-(2,2-Dimethyl-2,3-dihydrobenzofuran-7-yloxy)-2-hydroxypropyl/-4-hydroxy-4-phenyl-piperidine hydrochloride] |  |  | 6 nM | 18% | TTC change (in %) at 10^−5 M [1]: 65%
COc1ccc2cc(C3CCN(CC(O)COc4cccc5c4OC(C)(C)C5)CC3)ccc2c1.Cl (stereo not drawn) [Example 23, 1-/3-(2,2-Dimethyl-2,3-dihydrobenzofuran-7-yloxy)-2-hydroxypropyl/-4-(6-methoxynaphth-2-yl)piperidine hydrochloride] |  |  |  |  | MED (in mg/kg) p.o. [3]: 3 mg/kg
CC1(C)Cc2cccc(OCC(O)CN3CCC(O)(c4cccc(Cl)c4)CC3)c2O1 (stereo not drawn) [Example 24, 1-/3-(2,2-Dimethyl-2,3-dihydrobenzofuran-7-yloxy)-2-hydroxypropyl/-4-hydroxy-4-(3-chloro-phenyl)-piperidine hydrochloride] |  |  | 12 nM | 47% | MED (in mg/kg) p.o. [3]: 3 mg/kg
COc1cccc(C2(O)CCN(CC(O)COc3cccc4c3OC(C)(C)C4)CC2)c1 (stereo not drawn) [Example 25, 1-/3-(2,2-Dimethyl-2,3-dihydrobenzofuran-7-yloxy)-2-hydroxypropyl/-4-hydroxy-4-(3-methoxyphenyl)-piperidine hydrochloride] |  |  | 0.7 nM | 2% | anxiolytic effect compared with buspirone ([3]; in words): superior by one order of magnitude to buspirone; MED (in mg/kg) p.o. [3]: 0.3 mg/kg; TTC change (in %) at 10^−5 M [1]: 59%
COc1ccc(C2(O)CCN(CC(O)COc3cccc4c3OC(C)(C)C4)CC2)cc1 (stereo not drawn) [Example 26, 1-/3-(2,2-Dimethyl-2,3-dihydrobenzofuran-7-yloxy)-2-hydroxypropyl/-4-hydroxy-4-(4-methoxyphenyl)-piperidine] |  |  | 3 nM | 43% | 
Cc1ccc(C2(O)CCN(CC(O)COc3cccc4c3OC(C)(C)C4)CC2)cc1 (stereo not drawn) [Example 30, 1-/3-(2,2-Dimethyl-2,3-dihydrobenzofuran-7-yloxy)-2-hydroxypropyl/-4-hydroxy-4-(4-methyl-phenyl)piperidine hydrochloride] |  |  | 5 nM |  | 
CC1(C)Cc2cccc(OCC(O)CN3CCC(C#N)(c4ccccc4)CC3)c2O1.Cl (stereo not drawn) [Example 41, 1-/3-(2,2-Dimethyl-2,3-dihydrobenzofuran-7-yloxy)-2-hydroxypropyl/-4-cyano-4-phenyl-piperidine hydrochloride] |  |  |  | 32% | TTC change (in %) at 10^−5 M [1]: 53%
CC1(C)Cc2cccc(OCC(O)CN3CCN(c4ccc(F)cc4)CC3)c2O1 (stereo not drawn) [Example 63, 1-/3-(2,2-Dimethyl-2,3-dihydrobenzofuran-7-yloxy)-2-hydroxypropyl/-4-(4-fluorophenyl)-piperazine] | 111% | −3% |  |  | 
CC1(C)Cc2cccc(OCC(O)CN3CCN(c4cccc(F)c4)CC3)c2O1 (stereo not drawn) [Example 66, 1-/3-(2,2-Dimethyl-2,3-dihydrobenzofuran-7-yloxy)-2-hydroxypropyl/-4-(3-fluorophenyl)-piperazine] | 66% | 5% |  |  | 
COc1ccc(N2CCN(CC(O)COc3cccc4c3OC(C)(C)C4)CC2)cc1 (stereo not drawn) [Example 68, 1-/3-(2,2-Dimethyl-2,3-dihydrobenzofuran-7-yloxy)-2-hydroxypropyl/-4-(4-methoxyphenyl)-piperazine] | 43% | 0% |  |  | MED in mg/kg ip. [4]: 20 mg/kg
CC1(C)Cc2cccc(OCC(O)CN3CCN(c4ccc(Cl)cc4)CC3)c2O1 (stereo not drawn) [Example 73, 1-/3-(2,2-Dimethyl-2,3-dihydrobenzofuran-7-yloxy)-2-hydroxypropyl/-4-(4-chlorophenyl)-piperazine] | 49% | 19% |  |  | 
COc1cccc(N2CCN(CC(O)COc3cccc4c3OC(C)(C)C4)CC2)c1.Cl.Cl (stereo not drawn) [Example 76, 1-/3-(2,2-Dimethyl-2,3-dihydrobenzofuran-7-yloxy)-2-hydroxypropyl/-4-(3-methoxyphenyl)-piperazine dihydrochloride] | 80% | 25% |  |  | 
O=C1CC2(CCCC2)CC(=O)N1CCCCN1CCN(c2ncccn2)CC1 [buspirone, reference compound] |  |  |  |  | MED (in mg/kg) p.o. [3]: 3 mg/kg
CC1(C)Oc2ccc(C#N)cc2[C@@H](N2CCCC2=O)[C@@H]1O [lemakalim, (3S)-trans-3,4-dihydro-3-hydroxy-2,2-dimethyl-4-(2-oxo-1-pyrrolidinyl)-2H-1-benzpyrane-6-carbonitrile, reference compound] | 55% | 20% |  |  | 
CCCC(C)(COC(N)=O)COC(N)=O [meprobamate, 2-methyl-2-propyltri-methylenecarbamate, reference compound] |  |  |  |  | MED in mg/kg ip. [4]: 50 mg/kg
